US11325916B1, “Spiropyrrolidine derived antiviral agents” (priority 2021, dated 2022)
Where two headings read alike, the source gives them in different places.

Columns and labels:
[1] = test system: 229E human corona virus (hCoV); test: 229E Live Virus Assay (MRC-5 cells, CPE, ATPlite readout); format: cell-based, hCoV-229E; details: Human coronavirus 229E, MRC5, 144 h, read-out: 229E EC50
[2] = target: SARS-CoV-2 3CL-protease (Severe acute respiratory syndrome coronavirus 2 (2019-nCoV) (SARS-CoV-2), UniProt P0DTD1); test: SARS-CoV-2 3C-Like (3CL) Protease Fluorescence Assay (FRET); format: biochemical
[3] = MRC-5 cells, hCoV-229E MOI 0.05, 6 days at 34° C., ATPlite, duplicate, ranges defined in μM

Row | SMILES | EC50 [1, 3] [µM] | IC50 [2] [µM] | EC50 [1] [µM]
1 | CC(C)(C)C(N)C(=O)N1CCC[C@H]1C(=O)N1C[C@]2(C[C@H]1C#N)C(=O)Nc1ccccc12 (stereo partly shown) [Example 56] | > 1 | > 1 | 
2 | [2H]C([2H])([2H])N(C(=O)[C@H](CC1CC1)NC(=O)C1COC1)[C@@H](Cc1ccc(F)cc1)C(=O)N1C[C@]2(C[C@H]1C#N)C(=O)Nc1ccccc12 [Example 77] |  | < 0.1 | 0.1 to 1
3 | CC(C)C[C@@H](C(=O)N1C[C@]2(C[C@H]1C#N)C(=O)Nc1ccccc12)N(C)C(=O)[C@H](CC1CCC1)NC(=O)c1ccc(F)cc1 [Example 35] |  | < 0.1 | < 0.1
4 | CN(C(=O)[C@H](CC1CC1)N1CCOC1=O)[C@@H](CC(C)(C)C)C(=O)N1C[C@]2(C[C@H]1C#N)C(=O)Nc1ccccc12 [Example 72] |  | < 0.1 | < 0.1
5 | CN(C(=O)[C@H](Cc1ccc(F)cc1)NC(=O)c1cc2c(F)cc(F)c(F)c2[nH]1)[C@@H](CC(C)(C)C)C(=O)N1C[C@]2(C[C@H]1C#N)C(=O)Nc1ccccc12 [Example 7] |  | < 0.1 | < 0.1
6 | CC(C)(C)C[C@H](NC(=O)[C@H](Cc1ccc(F)cc1)NC(=O)C(F)(F)F)C(=O)N1C[C@]2(C[C@H]1C#N)C(=O)Nc1ccccc12 [Example 63] | < 0.1 | < 0.1 | 
7 | CC(C)C[C@@H](C(=O)N1C[C@]2(C[C@H]1C#N)C(=O)Nc1ccccc12)N(C)C(=O)[C@@H](NC(=O)OCc1ccccc1)C(C)(C)C [Example 11] |  | < 0.1 | 0.1 to 1
8 | CC(C)C[C@@H](C(=O)N1C[C@]2(C[C@H]1C#N)C(=O)Nc1ccccc12)N(C)C(=O)C1(NC(=O)OCc2ccccc2)CCCC1 [Example 115] |  | < 0.1 | 0.1 to 1
9 | CN(C(=O)[C@H](CC1CC1)NC(=O)N1CCOCC1)[C@@H](CC(C)(C)C)C(=O)N1C[C@]2(C[C@H]1C#N)C(=O)Nc1ccccc12 [Example 83] |  | < 0.1 | < 0.1
10 | CC(C)C[C@@H](C(=O)N1C[C@]2(C[C@H]1C#N)C(=O)Nc1ccccc12)N(C)C(=O)[C@H](CC(C)(C)C)NC(=O)c1ccc(F)cc1 [Example 34] |  | < 0.1 | < 0.1
11 | CN(C(=O)[C@H](CC1CC1)NC(=O)C(F)(F)F)[C@@H](CC(C)(C)C)C(=O)N1C[C@]2(C[C@H]1C#N)C(=O)Nc1ccccc12 [Example 75] |  | < 0.1 | < 0.1
12 | CC(C)C[C@@H](C(=O)N1C[C@]2(C[C@H]1C#N)C(=O)Nc1ccccc12)N(C)C(=O)[C@H](CC(C)(C)C)NC(=O)C(F)(F)F [Example 26] |  | < 0.1 | < 0.1
13 | CC(C)[C@@H](NC(=O)OC(C)(C)C)C(=O)N(C)[C@@H](Cc1ccccc1)C(=O)N1C[C@]2(C[C@H]1C#N)C(=O)Nc1ccccc12 [Example 48] |  | < 0.1 | < 0.1
14 | CN(C(=O)[C@H](CC1CC1)NC(=O)c1cn(C2CC2)nn1)[C@@H](CC(C)(C)C)C(=O)N1C[C@]2(C[C@H]1C#N)C(=O)Nc1ccccc12 [Example 124] |  | < 0.1 | < 0.1
15 | CC(C)C[C@@H](C(=O)N1C[C@]2(C[C@H]1C#N)C(=O)Nc1ccccc12)N(C)C(=O)[C@H](CC(C)(C)C)NC(=O)C(C)(C)C [Example 43] |  | < 0.1 | < 0.1
16 | CC(C)C[C@@H](C(=O)N1C[C@]2(C[C@H]1C#N)C(=O)Nc1ccccc12)N(C)C(=O)[C@H](Cc1ccc(F)cc1)NC(=O)C(F)(F)F [Example 2] | < 0.1 | < 0.1 | 
17 | CC(C)C[C@@H](C(=O)N1C[C@]2(C[C@H]1C#N)C(=O)Nc1ccccc12)N(C)C(=O)C(NC(=O)OCc1ccccc1)c1ccccc1 (stereo partly shown) [Example 22] |  | < 0.1 | < 0.1
18 | CC(C)C[C@@H](C(=O)N1C[C@]2(C[C@H]1C#N)C(=O)Nc1ccccc12)N(C)C(=O)[C@H](Cc1ccc(F)cc1)NC(=O)c1cnccn1 [Example 18] |  | < 0.1 | < 0.1
19 | CC(C)C[C@@H](C(=O)N1C[C@]2(C[C@H]1C#N)C(=O)Nc1ccccc12)N(C)C(=O)[C@H](CC1CC1)NC(=O)c1ccc(F)cc1 [Example 17] |  | < 0.1 | < 0.1
20 | CN(C(=O)[C@H](Cc1ccc(F)cc1)N1CCOC1=O)[C@@H](CC(C)(C)C)C(=O)N1C[C@]2(C[C@H]1C#N)C(=O)Nc1ccccc12 [Example 52] |  | < 0.1 | < 0.1
21 | CC(C)C[C@@H](C(=O)N1C[C@]2(C[C@H]1C#N)C(=O)Nc1ccccc12)N(C)C(=O)[C@@H](NC(=O)C(F)(F)F)C(C)(C)C [Example 12] |  | < 0.1 | 0.1 to 1
22 | CN(C(=O)[C@H](Cc1ccc(F)cc1)NC(=O)NC1CC1)[C@@H](CC(C)(C)C)C(=O)N1C[C@]2(C[C@H]1C#N)C(=O)Nc1ccccc12 [Example 8] |  | < 0.1 | < 0.1
23 | [2H]C([2H])([2H])N(C(=O)[C@H](CC1CC1)NC(=O)C(F)(F)F)[C@@H](CC1CC1)C(=O)N1C[C@]2(C[C@H]1C#N)C(=O)Nc1ccccc12 [Example 134] |  | < 0.1 | < 0.1
24 | CN(C(=O)[C@H](Cc1ccc(F)cc1)n1cc(-c2ccccc2)nn1)[C@@H](CC(C)(C)C)C(=O)N1C[C@]2(C[C@H]1C#N)C(=O)Nc1ccccc12 [Example 54] |  | < 0.1 | < 0.1

Row | SMILES | EC50 [1, 3] [µM] | IC50 [2] [µM] | EC50 [1] [µM]
25 | CC(C)C[C@@H](C(=O)N1C[C@]2(C[C@H]1C#N)C(=O)Nc1ccccc12)N(C)C(=O)[C@H](CC1CCC1)NC(=O)C(F)(F)F [Example 27] |  | < 0.1 | < 0.1
26 | CN(C(=O)[C@H](Cc1ccc(F)cc1)NS(=O)(=O)C1CC1)[C@@H](CC(C)(C)C)C(=O)N1C[C@]2(C[C@H]1C#N)C(=O)Nc1ccccc12 [Example 66] |  | < 0.1 | < 0.1
27 | CN(C(=O)[C@H](Cc1ccc(F)cc1)NC(=O)C1COC1)[C@@H](CC(C)(C)C)C(=O)N1C[C@]2(C[C@H]1C#N)C(=O)Nc1ccccc12 [Example 65] |  | < 0.1 | < 0.1
28 | CN(C(=O)[C@H](Cc1ccc(F)cc1)NC(=O)C1CCC1)[C@@H](CC(C)(C)C)C(=O)N1C[C@]2(C[C@H]1C#N)C(=O)Nc1ccccc12 [Example 64] |  | < 0.1 | < 0.1
29 | CN(C(=O)[C@@H](NCc1cc(F)c(F)cc1F)C(C)(C)C)[C@@H](Cc1ccccc1)C(=O)N1C[C@]2(C[C@H]1C#N)C(=O)Nc1ccccc12 [Example 30] |  | < 0.1 | 0.1 to 1
30 | CC(C)C[C@@H](C(=O)N1C[C@]2(C[C@H]1C#N)C(=O)Nc1ccccc12)N(C)C(=O)[C@@H](NC(=O)C(F)(F)F)C1CCCCC1 [Example 21] |  | < 0.1 | < 0.1
31 | CC(C)C[C@H](NC(=O)[C@@H](NC(=O)OCc1ccccc1)C(C)(C)C)C(=O)N1C[C@]2(C[C@H]1C#N)C(=O)Nc1ccccc12 [Example 36] |  | < 0.1 | 0.1 to 1
32 | COC(=O)N[C@@H](Cc1ccc(F)cc1)C(=O)N(C)[C@@H](CC(C)C)C(=O)N1C[C@]2(C[C@H]1C#N)C(=O)Nc1ccccc12 [Example 3] |  | < 0.1 | < 0.1
33 | CN(C(=O)[C@H](Cc1ccc(F)cc1)NC(=O)C(F)(F)F)[C@@H](CC(C)(C)C)C(=O)N1C[C@]2(C[C@H]1C#N)C(=O)Nc1ccccc12 [Example 6] | < 0.1 | < 0.1 | 
34 | CC(C)OC(=O)NC(C(=O)N1CCC[C@H]1C(=O)N1C[C@]2(C[C@H]1C#N)C(=O)Nc1ccccc12)C(C)(C)C (stereo partly shown) [Example 59] |  | > 1 | > 1
35 | CC(C)(C)C[C@H](NC(=O)[C@H](Cc1ccc(F)cc1)NC(=O)OCc1ccccc1)C(=O)N1C[C@]2(C[C@H]1C#N)C(=O)Nc1ccccc12 [Example 62] |  | < 0.1 | > 1
36 | COC(=O)N[C@H](C(=O)N(C)[C@@H](CC(C)C)C(=O)N1C[C@]2(C[C@H]1C#N)C(=O)Nc1ccccc12)C(C)(C)C [Example 13] |  | < 0.1 | 0.1 to 1
37 | CC(C)(C)C(NC(=O)NCc1ccccc1)C(=O)N1CCC[C@H]1C(=O)N1C[C@]2(C[C@H]1C#N)C(=O)Nc1ccccc12 (stereo partly shown) [Example 60] |  | > 1 | > 1
38 | CC(C)[C@@H](NC(=O)C(F)(F)F)C(=O)N(C)[C@@H](Cc1ccccc1)C(=O)N1C[C@]2(C[C@H]1C#N)C(=O)Nc1ccccc12 [Example 51] | 0.1 to 1 | < 0.1 | 
39 | CC(C)[C@H](NC(=O)N1CCCCC1)C(=O)N(C)[C@@H](CC(C)(C)C)C(=O)N1C[C@]2(C[C@H]1C#N)C(=O)Nc1ccccc12 [Example 112] |  | < 0.1 | 0.1 to 1
40 | CN(C(=O)[C@@H](N)C(C)(C)C)[C@@H](Cc1ccccc1)C(=O)N1C[C@]2(C[C@H]1C#N)C(=O)Nc1ccccc12 [Example 29] |  | < 0.1 | 0.1 to 1
41 | CC(C)C[C@@H](C(=O)N1C[C@]2(C[C@H]1C#N)C(=O)Nc1ccccc12)N(C)C(=O)[C@H](CC1CCC1)NC(=O)c1cc2c(F)cc(F)c(F)c2[nH]1 [Example 45] |  | < 0.1 | 0.1 to 1
42 | CN(C(=O)[C@H](Cc1ccc(F)cc1)NC(=O)OCc1ccccc1)[C@@H](CC(C)(C)C)C(=O)N1C[C@]2(C[C@H]1C#N)C(=O)Nc1ccccc12 [Example 5] |  | < 0.1 | < 0.1
43 | CC(=O)N(C)[C@@H](CC(C)(C)C)C(=O)N(C)[C@@H](CC(C)C)C(=O)N1C[C@]2(C[C@H]1C#N)C(=O)Nc1ccccc12 [Example 44] |  | < 0.1 | 0.1 to 1
44 | CC(C)[C@H](NC(=O)OCC1(c2ccccc2)CC1)C(=O)N(C)[C@@H](CC(C)(C)C)C(=O)N1C[C@]2(C[C@H]1C#N)C(=O)Nc1ccccc12 [Example 110] |  | < 0.1 | 0.1 to 1
45 | CC(C)[C@H](NC(=O)C(F)(F)F)C(=O)N[C@@H](CC(C)(C)C)C(=O)N1C[C@]2(C[C@H]1C#N)C(=O)Nc1ccccc12 [Example 90] |  | < 0.1 | 0.1 to 1
46 | CC(C)C[C@@H](C(=O)N1C[C@]2(C[C@H]1C#N)C(=O)Nc1ccccc12)N(C)C(=O)[C@H](CC(C)(C)C)NC(=O)OCc1ccccc1 [Example 25] |  | < 0.1 | < 0.1
47 | CN(C(=O)[C@@H](NC(=O)OCc1ccccc1)C(C)(C)C)[C@@H](Cc1ccccc1)C(=O)N1C[C@]2(C[C@H]1C#N)C(=O)Nc1ccccc12 [Example 28] |  | < 0.1 | 0.1 to 1
